Ends that are not written are not given here.
Assays:
HLA-DRB1*08:02 = HLA-DRB1*08:02 (Homo sapiens, UniProt P01903+P01911, A100R/A103L/A169T/F76Y/H45Y/I96F/K41T/L162R/M171V/P40S/Q125H/Q178H/Q39Y/Q99D/R218S/R42G/S66Y/V115G/W38E); test: Competitive inhibition HLA II binding assay; conditions: competition with radiolabeled probe peptide, purified HLA II, 0.3 nM–30 µM, 2-day incubation; mean of three or more independent assays
HLA-DRB1*04:04 = HLA-DRB1*04:04 (Homo sapiens, UniProt P01903+P01911, A100R/A169T/F76Y/I96L/K127E/L162R/M171V/N62H/P40V/Q125Y/R42H/S133A/S149N/S66Y/V209L/W38E); test: Competitive inhibition HLA II binding assay; conditions: competition with radiolabeled probe peptide, purified HLA II, 0.3 nM–30 µM, 2-day incubation; mean of three or more independent assays
[1] = system: PBMCs from three HLA II-typed donors; test: IFNγ-ELISPOT assay; format: cell-based, human; conditions: 10 μM peptide, 1 × 10^5 PBMCs, 24 h, triplicate; positive if >60 SFC/10^6 PBMCs after background subtraction
Description: Peptide-specific IFNγ production by PBMCs from HLA II-typed donors was detected by standard IFNγ ELISPOT assays. Briefly, 96-well PVDF plates (Millipore, Darmstadt, Germany) were coated with anti-IFNγ (1-D1K mAb, Mabtech, Stockholm, Sweden) and 1 × 10^5 PBMCs were pleated with RPMI 1640 (Gibco, Waltham, MA, USA), supplemented with 10% of fetal bovine serum (Gibco, Waltham, MA, USA), 100 µg/mL streptomycin, 100 U/mL penicillin, and 2 mM L-glutamine (Lonza, Basel, Switzerland). Individual RV peptides were added at 10 μM. Plates were incubated at 37 °C and 5% CO2 and, after 24 h, were processed according to the manufacturer’s instructions. PBMCs incubated with 10 μg/mL phytohemagglutinin (PHA) or without any stimuli were used as positive and background controls, respectively. The assay was run in triplicate for each individual peptide. The number of IFNγ-secreting cells (spot forming cells (SFCs)) was determined with an ELISPOT reader (ImmunoSpot 5.0, CTL Analyzers, Shaker Heights, OH, USA).

HLA-DRB1*07:01 = HLA-DRB1*07:01 (Homo sapiens, UniProt P01903+P01911, A100R/A102G/A103Q/D57E/D86V/E43K/F76Y/K127E/L162R/M171V/P40G/Q125H/Q99D/R33Q/R42Y/R54Q/S133A/S66F/T210M/V115G/Y107V/Y59L/Y89S); test: Competitive inhibition HLA II binding assay; conditions: competition with radiolabeled probe peptide, purified HLA II, 0.3 nM–30 µM, 2-day incubation; mean of three or more independent assays
HLA-DRB1*09:01 = HLA-DRB1*09:01 (Homo sapiens, UniProt P01903+P01911, A100R/A103E/D57H/D86V/F55Y/F60I/F76Y/I96F/K127E/L162R/M171V/P40D/Q125H/Q99R/R33Q/R42F/S133A/S66N/T210M/V115G/W38K/Y107V/Y59G/Y89S); test: Competitive inhibition HLA II binding assay; conditions: competition with radiolabeled probe peptide, purified HLA II, 0.3 nM–30 µM, 2-day incubation; mean of three or more independent assays
HLA-DRB1*11:04 = HLA-DRB1*11:04 (Homo sapiens, UniProt P01903+P01911, A100R/A169T/A87E/I96F/K41T/L162R/M171V/P40S/Q125H/Q178H/Q39Y/Q99D/R42S/S66Y/T262R/W38E); test: Competitive inhibition HLA II binding assay; conditions: competition with radiolabeled probe peptide, purified HLA II, 0.3 nM–30 µM, 2-day incubation; mean of three or more independent assays
HLA-DRB1*11:01 = HLA-DRB1*11:01 (Homo sapiens, UniProt P01903+P01911, A100R/A169T/A87E/I96F/K41T/L162R/M171V/P40S/Q125H/Q178H/Q39Y/Q99D/R42S/S66Y/T262R/V115G/W38E); test: Competitive inhibition HLA II binding assay; conditions: competition with radiolabeled probe peptide, purified HLA II, 0.3 nM–30 µM, 2-day incubation; mean of three or more independent assays
HLA-DRB1*13:02 = HLA-DRB1*13:02 (Homo sapiens, UniProt P01903+P01911, A100E/A169T/K41T/L162R/M171V/P40S/Q125H/Q178H/Q39Y/Q99D/R42S/S66N/T262R/V115G/W38E/Y61H); test: Competitive inhibition HLA II binding assay; conditions: competition with radiolabeled probe peptide, purified HLA II, 0.3 nM–30 µM, 2-day incubation; mean of three or more independent assays
HLA-DRB1*03:01 = HLA-DRB1*03:01 (Homo sapiens, UniProt P01903+P01911, A100K/A102G/A103R/A169T/F55Y/I96L/K41T/L162R/M171V/P40S/Q125H/Q178H/Q39Y/R42S/S66N/T106N/T262R/W38E/Y61H); test: Competitive inhibition HLA II binding assay; conditions: competition with radiolabeled probe peptide, purified HLA II, 0.3 nM–30 µM, 2-day incubation; mean of three or more independent assays

DLPYVTYLKDELR [RVC1835–1847]
IC50 (HLA-DRB1*08:02): 2600 nM
IC50 (HLA-DRB1*04:04): 773 nM

YGDDVIFSY [RVA2029–2037, reference compound]
IFNγ recall response in ELISPOT [1]: not immunogenic in IFNγ ELISPOT assays

KEKFRDIRRFIP [RVC1582–1592]
IC50 (HLA-DRB1*07:01): 13000 nM
IC50 (HLA-DRB1*09:01): 2730 nM
IC50 (HLA-DRB1*08:02): 44 nM
IC50 (HLA-DRB1*11:04): 101 nM
IC50 (HLA-DRB1*11:01): 33 nM
IC50 (HLA-DRB1*04:04): 8680 nM

YEIQESEYYPKHIQY [RVC945–959, RV C 2A peptide, position 945–959]
IFNγ recall response in ELISPOT [1]: able to stimulate IFNγ production by T cells in at least one donor

CC(C)C[C@H](NC(=O)[C@H](Cc1ccc(O)cc1)NC(=O)[C@H](Cc1c[nH]cn1)NC(=O)[C@@H]1CCCN1C(=O)[C@H](Cc1c[nH]c2ccccc12)NC(=O)[C@@H](NC(=O)CNC(=O)[C@H](Cc1ccc(O)cc1)NC(=O)CNC(=O)[C@@H](NC(=O)[C@@H](NC(=O)[C@H](C)NC(=O)[C@H](CC(N)=O)NC(=O)[C@H](C)NC(=O)[C@@H](N)C(C)C)C(C)C)C(C)C)C(C)C)C(=O)N[C@H](C(=O)N1CCC[C@H]1C(=O)N[C@@H](CCC(=O)O)C(=O)O)[C@@H](C)O [RVA97–114]
IC50 (HLA-DRB1*07:01): 1300 nM
IC50 (HLA-DRB1*09:01): 11500 nM
IC50 (HLA-DRB1*13:02): 11600 nM
IC50 (HLA-DRB1*08:02): 453 nM
IC50 (HLA-DRB1*11:04): 19700 nM
IC50 (HLA-DRB1*11:01): 1100 nM
IC50 (HLA-DRB1*04:04): 5580 nM

INLRTNNSSTIVVPYIN [RVC258–274]
IC50 (HLA-DRB1*07:01): 411 nM
IC50 (HLA-DRB1*09:01): 840 nM
IC50 (HLA-DRB1*13:02): 40 nM
IC50 (HLA-DRB1*04:04): 3430 nM

GLEPLDLNTSAGFPYV [RVC1791–1806]
IC50 (HLA-DRB1*07:01): 1200 nM
IC50 (HLA-DRB1*13:02): 62 nM
IC50 (HLA-DRB1*04:04): 1100 nM
IC50 (HLA-DRB1*03:01): 8400 nM

CC[C@H](C)[C@H](NC(=O)CNC(=O)[C@H](CCCCN)NC(=O)[C@H](CCC(=O)O)NC(=O)[C@H](CC(C)C)NC(=O)[C@@H](NC(=O)[C@H](CC(=O)O)NC(=O)[C@H](CCCCN)NC(=O)[C@@H](N)C(C)C)C(C)C)C(=O)N1CCC[C@H]1C(=O)N[C@H](C(=O)N[C@@H](CC(C)C)C(=O)N[C@@H](CCC(N)=O)C(=O)N[C@@H](CO)C(=O)N1CCC[C@H]1C(=O)N[C@H](C(=O)N[C@H](C(=O)N[C@@H](CCC(=O)O)C(=O)O)C(C)C)[C@@H](C)O)[C@@H](C)O [RVA57–74]
IC50 (HLA-DRB1*09:01): 9540 nM
IC50 (HLA-DRB1*04:04): 4100 nM

CC[C@H](C)[C@H](NC(=O)[C@@H](NC(=O)[C@H](CO)NC(=O)[C@@H](N)CC(=O)O)[C@@H](C)O)C(=O)N[C@H](C(=O)N[C@@H](CO)C(=O)N[C@@H](CCC(N)=O)C(=O)N[C@@H](CC(=O)O)C(=O)N[C@H](C(=O)N[C@@H](C)C(=O)N[C@@H](CC(N)=O)C(=O)N[C@@H](C)C(=O)N[C@H](C(=O)N[C@H](C(=O)NCC(=O)N[C@@H](Cc1ccc(O)cc1)C(=O)NCC(=O)N[C@H](C(=O)O)C(C)C)C(C)C)C(C)C)C(C)C)[C@@H](C)O [RVA89–106]
IC50 (HLA-DRB1*07:01): 865 nM
IC50 (HLA-DRB1*09:01): 1200 nM
IC50 (HLA-DRB1*13:02): 6650 nM
IC50 (HLA-DRB1*08:02): 5170 nM
IC50 (HLA-DRB1*11:04): 5820 nM
IC50 (HLA-DRB1*04:04): 19 nM
